Laboratory results reported in patent US12060329B1, “6′-(2-bromophenyl)-2′-ethoxy-3,4′-bipyridine-3′-carbonitrile as an antioxidant compound” (KING FAISAL UNIVERSITY, priority 2023, dated 2024).

Assay: DPPH radical scavenging antioxidant test
Format: biochemical
Conditions: 517 nm; for Inhibition (radical scavenging inhibition): compound 3 μM in ethanol, 0.2 mL DPPH (0.75 mM), 30 minutes in the dark
Method: The antioxidant activity of 6′-(2-bromophenyl)-2′-ethoxy-3,4′-bipyridine-3′-carbonitrile was investigated by 2,2-diphenyl-1-picrylhydrazyl (DPPH) in vitro tests that employ vitamin C as the positive control.
The antioxidant properties of the 6′-(2-bromophenyl)-2′-ethoxy-3,4′-bipyridine-3′-carbonitrile compound were studied by adding 0.2 mL DPPH (0.75 mM)) to 6′-(2-bromophenyl)-2′-ethoxy-3,4′-bipyridine-3′-carbonitrile (3 μM) (4) in ethanol. After 30 minutes of incubation in the dark, the absorbance was read against a blank at 517 nm. Ascorbic acid (vitamin C) was used as standard antioxidants (positive control). A blank sample was prepared by 0.2 mL of DPPH in 3 mL ethanol. A negative control sample was run using ethanol instead of the sample. The radical scavenging inhibition was calculated using the following equation: […]
The antioxidant activity for the synthesized compound is listed in Table 1, using Vitamin C as a reference.

Structure (SMILES)	antioxidant potential to vanish the DPPH radical colors (in words) (DPPH in vitro test, vitamin C as positive control)	Inhibition (radical scavenging inhibition) [%]
CCOc1nc(-c2ccccc2Br)cc(-c2cccnc2)c1C#N [Product 4, 6′-(2-bromophenyl)-2′-ethoxy-3,4′-bipyridine-3′-carbonitrile]	high potential as an antioxidant compared to vitamin C	50
O=C1O[C@H]([C@@H](O)CO)C(O)=C1O [vit c, Ascorbic acid, reference compound]		74
